Reference: patent US12016831B2, “Polidocanol for use as immunomodulating agent” (priority 2018, dated 2024)
“Also recorded” adds a separate entry of the source.

Key:
Assay type in all cases: in vivo, human
[1] = system: healthy volunteer subjects; test: Serum measurement of cytokines, chemokines and growth factors (Bio-Plex) after treatment
Protocol: (§1) The recruited patients had already been subjected to one or more polidocanol treatments, but had undergone a wash-out period of at least 4 months.
Blood was then drawn at about 30′-1 hour (T1h), 1 day (T1), 7 days (T7) and 30 days (T30) after treatment, measuring the following serum parameters: • a) “Pro-inflammatory” cytokines: IL-1β, IL-6, IL-7, IL-12 (p70), IL-17, IFN-γ, TNF-α; • b) “Anti-inflammatory” cytokines: IL-1ra, IL-4, IL-5, IL-9, IL-13; • c) Chemokines: IL-8/CXCL8, IP-10/CXCL10, MIP-1α/CCL3, MIP-1β, RANTES/CCL5, Eotaxin/CCL11; • d) Growth factors: b-FGF, PDGF-bb, VEGF, G-CSF.
In a limited number of patients measurements 30 minutes and 3 hours after the treatment were carried out in order to identify short-term responses and assess possible acute inflammation indicators.
(§2) Determinations a)-d) were carried out with Multiple Immunomagnetic Assay (Bio-Plex, Bio-Rad). Ig determinations were carried out with commercially available kits.
The determinations carried out were statistically analysed with the Friedman test and Dunns Multiple Comparison test. The most significant results are depicted in FIG. 1.

[2] = system: patients with autoimmune diseases (psoriasis, rheumatoid arthritis, systemic scleroderma); test: Cytokine and CRP levels in patients with autoimmune diseases after single administration; conditions: for Interleukin 1 beta level: T0 = 1; for Interleukin 13 level: T0 = 4; for Interleukin 6 level: T0 = 4.6; for Interleukin 7 level: T0 = 7; for CRP level: T0 = 32; for Interleukin 12 level / Interleukin 17 (25) level: T0 = 40; for Interleukin 9 level: T0 = 50; for TNF alpha level: T0 = 60
Protocol: A similar approach was used in a limited group of patients with autoimmune diseases. 10 patients (5 with psoriasis, 3 with rheumatoid arthritis, 2 with systemic scleroderma) were administered once the composition of the invention and a sample of blood was taken at T1 (8 days), T2 (30 days) and T3 (60 days). Cytokine and CRP (C-Reactive Protein, an index of inflammation) levels were measured by SCREEN CRP TEST and compared to those at time 0 (before the treatment).

[3] = system: healthy volunteer subjects; test: Serum immunoglobulin and light chain levels after treatment
Protocol: as §1
Levels of IgM, IgG, IgA and of light chains kappa/lambda, kappa and lambda were also measured.
as §2

[4] = 7 days post treatment (T7) vs basal

Polidocanol [diluted polidocanol]
IL-8 level ([1]; 7-30 days): increases | IL-1ra serum level [1, 4]: increase significantly; also recorded: significantly increased serum levels | IL-1β serum level [1, 4]: increase significantly; also recorded: significantly increased serum levels | IL-12 (p70) serum level [1, 4]: increase significantly; also recorded: significantly increased serum levels | MIP-1β/CCL4 serum level [1, 4]: modest variation (increase); also recorded: significantly increased serum levels | VEGF serum level [1, 4]: Increase; also recorded: significantly increased serum levels | IL-7 serum level ([1]; 30 days (T30) vs T0, p<0.01): decreases in a statistically significant way; also recorded: decreases significantly; also recorded: decrease | IL-12 serum level ([1]; 30 days (T30) vs T0, p<0.05): increases significantly; also recorded: increase | IL-1ra serum level ([1]; 30 days (T30), p<0.05): increase | IL-1β serum level ([1]; 30 days (T30), p<0.05): increase | VEGF serum level ([1]; 30 days (T30), p<0.05): higher levels; also recorded: increase | serum parameters, not-treated (T0) vs 1 day after treatment (T1) ([1]; T1, acute inflammatory reaction): None of the analysed parameters showed statistically significant differences | PDGFbb level ([1]; after treatment): increasing | b-FGF level ([1]; after treatment): increasing | most of the serum parameters (except for IP-10/CXCL10) compared with T0 ([1]; first hour after treatment (T30-45 min)): increased | IL-2, IL-10, IL-15, GM-CSF and MCP-1/CCL2 serum levels ([1]; in vivo): below the detection limits | MIP-1α level ([1]; with respect to basal levels, within the 1st and 7th days): modest variation (increase) | Interleukin 1 beta level ([2]; T1 (8 days) after single administration, average, 10 patients): 1.5 | Interleukin 13 level ([2]; T1 (8 days)): 5 | Interleukin 6 level ([2]; T1 (8 days)): 4.8 | Interleukin 7 level ([2]; T1 (8 days)): 9 | CRP level ([2]; T1 (8 days)): 30 | Interleukin 12 level ([2]; T1 (8 days)): 42 | Interleukin 17 (25) level ([2]; T1 (8 days)): 45 | Interleukin 9 level ([2]; T1 (8 days)): 80 | TNF alpha level ([2]; T1 (8 days)): 52 | Interleukin 1 beta level ([2]; T2 (30 days)): 1.7 | Interleukin 13 level ([2]; T2 (30 days)): 5 | Interleukin 6 level ([2]; T2 (30 days)): 3.7 | Interleukin 7 level ([2]; T2 (30 days)): 3 | CRP level ([2]; T2 (30 days)): 24 | Interleukin 12 level ([2]; T2 (30 days)): 36 | Interleukin 17 (25) level ([2]; T2 (30 days)): 32 | Interleukin 9 level ([2]; T2 (30 days)): 100 | TNF alpha level ([2]; T2 (30 days)): 42 | Interleukin 1 beta level ([2]; T3 (60 days)): 1.2 | Interleukin 13 level ([2]; T3 (60 days)): 4 | Interleukin 6 level ([2]; T3 (60 days)): 3.2 | Interleukin 7 level ([2]; T3 (60 days)): 3 | CRP level ([2]; T3 (60 days)): 16 | Interleukin 12 level ([2]; T3 (60 days)): 32 | Interleukin 17 (25) level ([2]; T3 (60 days)): 28 | Interleukin 9 level ([2]; T3 (60 days)): 120 | TNF alpha level ([2]; T3 (60 days)): 48 | IgA level ([3]; T30 with respect to T7 and T0): decrease | IgG level ([3]; T30 with respect to T7 and T0): decrease | IgM level ([3]; T30 with respect to T7 and T0): decrease | light chains levels ([3]; T30 with respect to T7 and T0): decrease | immunogenic effect (IgM and IgG levels) ([3]; after 7 and 30 days, at the tested concentrations): absence of an immunogenic effect | tested Ig levels ([3]; between T0 and T7): none of the tested Ig fluctuates
